This passage reports IC50 and inhibition results from article PMC11477621, “Design, Synthesis, and Biological Evaluation of HDAC Inhibitors Containing Natural Product-Inspired N-Linked 2-Acetylpyrrole Cap” (Molecules, 2024).

One assay has as its target T1, HDAC1 (Homo sapiens, UniProt Q13547).
T1 construct: purchased BPS #50001
Briefly: HDAC inhibition assay (HTRF), HDAC1.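 As to all read-outs here: HTRF detection with streptavidin-XL665 plus Eu(K)-labelled anti-H3K9me0 antibody, two independent runs with duplicate wells per concentration.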 The class given is biochemical. Particulars: for IC50: read-out: IC50 ± SD, HDAC1. In general terms: Time-resolved FRET reads energy transfer from a long-lived donor to a nearby acceptor.

In another assay the target is HDAC3 (Homo sapiens, UniProt O15379). Put plainly: HDAC inhibition assay (HTRF), HDAC3.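 Also: HTRF detection with streptavidin-XL665 and a Eu cryptate-labelled antibody against unmodified H3K9, two independent runs with duplicate wells at each concentration.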
The target in a further assay is T2, HDAC6 (Homo sapiens, UniProt Q9UBN7).
T2 construct: purchased BPS #50006
T2 sequence (Q9UBN7 1-1215): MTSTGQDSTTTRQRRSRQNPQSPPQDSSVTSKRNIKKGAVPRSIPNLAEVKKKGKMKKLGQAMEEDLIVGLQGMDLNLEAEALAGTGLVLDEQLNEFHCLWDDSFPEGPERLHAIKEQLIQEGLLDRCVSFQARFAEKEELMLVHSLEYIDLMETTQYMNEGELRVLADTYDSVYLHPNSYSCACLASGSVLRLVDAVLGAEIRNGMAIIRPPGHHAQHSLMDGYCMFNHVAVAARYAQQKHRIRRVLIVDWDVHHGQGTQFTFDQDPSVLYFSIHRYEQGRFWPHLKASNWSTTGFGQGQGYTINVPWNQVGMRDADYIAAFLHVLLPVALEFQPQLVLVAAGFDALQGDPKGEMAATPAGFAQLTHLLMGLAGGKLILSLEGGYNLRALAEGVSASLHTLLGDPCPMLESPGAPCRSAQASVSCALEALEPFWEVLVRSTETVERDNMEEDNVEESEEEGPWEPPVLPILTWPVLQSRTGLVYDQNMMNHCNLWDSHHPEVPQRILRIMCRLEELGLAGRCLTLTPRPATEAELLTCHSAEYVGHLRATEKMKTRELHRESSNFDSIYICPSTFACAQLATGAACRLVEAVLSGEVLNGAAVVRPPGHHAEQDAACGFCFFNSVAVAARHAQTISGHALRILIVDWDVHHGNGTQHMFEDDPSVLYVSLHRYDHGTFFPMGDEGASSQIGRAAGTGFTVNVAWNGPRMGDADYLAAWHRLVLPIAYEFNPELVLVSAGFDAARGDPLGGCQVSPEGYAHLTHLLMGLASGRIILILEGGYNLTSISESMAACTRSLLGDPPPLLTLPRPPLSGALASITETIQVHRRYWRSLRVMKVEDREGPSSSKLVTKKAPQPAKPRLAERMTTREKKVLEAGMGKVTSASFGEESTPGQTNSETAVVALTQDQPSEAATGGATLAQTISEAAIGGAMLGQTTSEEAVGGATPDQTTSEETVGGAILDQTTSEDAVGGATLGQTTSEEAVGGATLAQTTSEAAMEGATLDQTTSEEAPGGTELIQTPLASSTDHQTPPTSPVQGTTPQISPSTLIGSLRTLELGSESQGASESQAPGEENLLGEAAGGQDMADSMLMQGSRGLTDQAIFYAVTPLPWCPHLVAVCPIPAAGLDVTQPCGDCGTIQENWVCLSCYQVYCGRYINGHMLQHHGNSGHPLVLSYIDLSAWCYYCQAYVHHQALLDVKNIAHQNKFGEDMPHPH
Briefly: HDAC inhibition assay (HTRF), HDAC6. The class given is biochemical. Particulars: for IC50: read-out: IC50 ± SD, HDAC6.

Assay [1] deals with HCT-116 (human colon cancer cell line). Put plainly: CCK8 cell viability assay, HCT-116. The class given is cell-based. Conditions: 72 h, read-out: Proliferation inhibition IC50 ± SD, HCT-116. How it is done:
(§1) The CCK8 (#AC11L054, Life ilab, Shanghai, China) method was used to detect the cells’ proliferation. Cells were seeded into a 96-well culture plate at an appropriate density. […] IC50 values were estimated using the four-parameter method. Each set of experiments was repeated independently three times with three replicate wells per concentration each time.
(Formazan colour is commonly taken as a measure of viable cells.)

For assay [2], the system named is HL-60 (human leukemia cell line). Briefly: CCK8 cell viability assay, HL-60. Particulars: 72 h, read-out: Proliferation inhibition IC50 ± SD, HL-60. The class given is cell-based. As to the method: as §1
Assay [3] deals with RPMI-8226 (human myeloma cell line). Put plainly: CCK8 cell viability assay, RPMI-8226. The class given is cell-based. Particulars: 72 h, read-out: Proliferation inhibition IC50 ± SD, RPMI-8226. As to the method:
as §1

[4] abbreviates: read-out: (%) Inhibition of HDAC3.

HDAC3, sequence (O15379 whole entry): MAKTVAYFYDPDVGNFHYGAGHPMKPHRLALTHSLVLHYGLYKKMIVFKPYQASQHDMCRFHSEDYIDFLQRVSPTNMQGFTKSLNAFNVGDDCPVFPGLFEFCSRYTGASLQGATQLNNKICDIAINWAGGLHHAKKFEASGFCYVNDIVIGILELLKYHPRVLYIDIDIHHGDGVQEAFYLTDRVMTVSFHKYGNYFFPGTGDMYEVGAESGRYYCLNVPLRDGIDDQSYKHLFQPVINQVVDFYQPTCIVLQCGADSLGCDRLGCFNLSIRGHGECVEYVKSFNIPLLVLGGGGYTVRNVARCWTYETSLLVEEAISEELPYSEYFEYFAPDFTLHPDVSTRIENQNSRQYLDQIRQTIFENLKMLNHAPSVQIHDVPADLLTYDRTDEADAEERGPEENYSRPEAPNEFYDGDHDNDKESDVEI
HDAC3, sequence (Q9Y618 395-489 partner limits assumed): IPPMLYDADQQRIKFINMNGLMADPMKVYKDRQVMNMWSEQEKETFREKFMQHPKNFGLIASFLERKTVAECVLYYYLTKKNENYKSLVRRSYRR
T1 sequence (Q13547 whole entry): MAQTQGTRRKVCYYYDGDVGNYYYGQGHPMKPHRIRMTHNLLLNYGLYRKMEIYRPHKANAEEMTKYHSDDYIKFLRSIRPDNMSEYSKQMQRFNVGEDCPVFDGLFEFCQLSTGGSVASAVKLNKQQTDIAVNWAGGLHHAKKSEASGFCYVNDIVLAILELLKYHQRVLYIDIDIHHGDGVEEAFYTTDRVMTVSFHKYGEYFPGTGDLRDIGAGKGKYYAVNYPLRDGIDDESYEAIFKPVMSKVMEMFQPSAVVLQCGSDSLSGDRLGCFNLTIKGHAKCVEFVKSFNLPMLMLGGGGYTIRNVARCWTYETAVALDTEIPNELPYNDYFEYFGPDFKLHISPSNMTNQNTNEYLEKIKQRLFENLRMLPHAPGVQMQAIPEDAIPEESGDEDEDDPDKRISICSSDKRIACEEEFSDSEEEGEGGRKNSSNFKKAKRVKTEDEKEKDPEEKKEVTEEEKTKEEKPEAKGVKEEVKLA
Protocol for HDAC1: (§2) Then, SA-XL665 (#610SAXLG, Cisbio, Bedford, MA, USA) and anti-H3K9me0-Eu(K) (#61KB0KAD, Cisbio, USA) were added. […] The IC50 value of the compounds was calculated using GraphPad 7.0 software. Each set of experiments was independently repeated twice, with two replicate wells per concentration each time.
Protocol for HDAC3: as §2
Protocol for HDAC6: as §2

On to `CC(=O)c1cccn1CCCCCC(=O)NO` [Compound 3c, 6-(2-Acetyl-1H-pyrrol-1-yl)-N-hydroxyhexanamide], for which the IC50 on HDAC1 is 0.118 ± 0.0308 µM; against HDAC3 it was 0.138 ± 0.0186 µM; at HDAC6 it was 0.0823 ± 0.0152 µM.
Take `O=C(CCCCCCn1cccc1)NO` [Compound 5a, N-hydroxy-7-(1H-pyrrol-1-yl)heptanamide]: the IC50 in assay [1] was 26.4 ± 4.1 µM; in assay [2], 19.8 ± 1.88 µM; at HDAC1, 0.101 ± 0.0257 µM; in assay [3] it was above 30 µM; against HDAC3, 0.129 ± 0.0516 µM; on HDAC6 it was 0.0164 ± 0.00631 µM.
Consider `CC(=O)c1cccn1CCCCCCC(=O)NO` [Compound 3d, 7-(2-Acetyl-1H-pyrrol-1-yl)-N-hydroxyheptanamide], for which the IC50 in assay [1] was above 30 µM; in assay [2], above 30 µM; on HDAC1, 0.0519 ± 0.00673 µM; in assay [3], above 30 µM; at HDAC3, 0.04553 ± 0.00023 µM; on HDAC6, 0.0142 ± 0.00124 µM.
On to `O=C(CCCCCCn1ccc2ccccc21)NO` [Compound 5f, N-hydroxy-7-(1H-indol-1-yl)heptanamide], for which the IC50 in assay [1], in assay [2] and in assay [3] was above 30 µM in each case. The inhibition at 1 µM at HDAC1 is 96.8%; at HDAC3 (setting [4]) it was 94.4%; against HDAC6, 92.6%.
On to `CC(=O)c1cccn1CCCCC(=O)NO` [Compound 3b, 5-(2-Acetyl-1H-pyrrol-1-yl)-N-hydroxypentanamide], for which the IC50 is 0.426 ± 0.0138 µM at HDAC1, above 10 µM at HDAC3 and above 10 µM on HDAC6.
As for `O=C(CCCCCCn1ccc2cc(Cl)ccc21)NO` [Compound 5j, 7-(5-Chloro-1H-indol-1-yl)-N-hydroxyheptanamide], the IC50 in assay [1], in assay [2] and in assay [3] was above 30 µM throughout. The results for the inhibition at 1 µM at HDAC1, on HDAC3 (setting [4]) and on HDAC6 were 96.2%, 93.3% and 92.3%, respectively.
Regarding `CC(=O)c1cccn1Cc1cn(CCc2ccc(C(=O)Nc3ccc(Cl)cc3N)cc2)nn1` [Compound 19c, 4-(2-(4-((2-Acetyl-1H-pyrrol-1-yl)methyl)-1H-1,2,3-triazol-1-yl)ethyl)-N-(2-amino-4-chlorophenyl)benzamide], the IC50 at HDAC1, against HDAC3 and at HDAC6 was above 10 µM in each case.
Regarding `N#Cc1ccc2c(ccn2CCCCCCC(=O)NO)c1` [Compound 5l, 7-(5-Cyano-1H-indol-1-yl)-N-hydroxyheptanamide], the IC50 was above 30 µM in assay [1]; above 30 µM in assay [2]; 0.00242 ± 0.00036 µM on HDAC1; above 30 µM in assay [3]; 0.00118 ± 6e-05 µM on HDAC3; 0.00231 ± 0.00034 µM at HDAC6.
Turning to `COC(=O)c1cccn1CCCCCCC(=O)NO` [Compound 5d, Methyl 1-(7-(hydroxyamino)-7-oxoheptyl)-1H-pyrrole-2-carboxylate], the IC50 in assay [1] was above 30 µM; in assay [2] it was 21.8 ± 10.7 µM; at HDAC1, 0.052 ± 0.0219 µM; in assay [3] it was above 30 µM; against HDAC3, 0.0495 ± 0.00292 µM; at HDAC6, 0.0112 ± 0.00476 µM.
Take `O=C(CCCCCCn1ccc2cc(F)ccc21)NO` [Compound 5i, 7-(5-Fluoro-1H-indol-1-yl)-N-hydroxyheptanamide]: the IC50 in assay [1] is above 30 µM; in assay [2], above 30 µM; at HDAC1 it was 0.00448 ± 0.00243 µM; in assay [3], above 30 µM; at HDAC3 it was 0.00182 ± 0.00078 µM; at HDAC6, at most 0.0017 µM.
Regarding `CC(=O)c1cccn1CCCC(=O)NO` [Compound 3a, 4-(2-Acetyl-1H-pyrrol-1-yl)-N-hydroxybutanamide], the IC50 on HDAC1, on HDAC3 and at HDAC6 was above 10 µM throughout.
Regarding `O=C(CCCCCCn1cccc1C(=O)c1ccccc1)NO` [Compound 5e, 7-(2-Benzoyl-1H-pyrrol-1-yl)-N-hydroxyheptanamide], the IC50 in assay [1] came to 19.8 ± 8.32 µM; in assay [2], 7.5 ± 1.55 µM; at HDAC1, 0.0137 ± 0.00439 µM; in assay [3], 17.9 ± 6.51 µM; on HDAC3, 0.00308 ± 0.00097 µM; at HDAC6 it was 0.00974 ± 0.00637 µM.
As to `COc1ccc(NC(=O)c2ccc(CCn3cc(Cn4cccc4C(C)=O)nn3)cc2)c(N)c1` [Compound 19e, 4-(2-(4-((2-Acetyl-1H-pyrrol-1-yl)methyl)-1H-1,2,3-triazol-1-yl)ethyl)-N-(2-amino-4-methoxyphenyl)benzamide], the IC50 on HDAC1, on HDAC3 and on HDAC6 was above 10 µM in each case.
Consider `CC(=O)c1cccn1Cc1cn(CCc2ccc(C(=O)Nc3cc(F)c(F)cc3N)cc2)nn1` [Compound 19d, 4-(2-(4-((2-Acetyl-1H-pyrrol-1-yl)methyl)-1H-1,2,3-triazol-1-yl)ethyl)-N-(2-amino-4,5-difluorophenyl)benzamide], for which the IC50 on HDAC1, against HDAC3 and on HDAC6 was above 10 µM each time.
`Cc1ccc2c(ccn2CCCCCCC(=O)NO)c1` [Compound 5g, N-hydroxy-7-(5-methyl-1H-indol-1-yl)heptanamide]: the IC50 in assay [1], in assay [2] and in assay [3] was above 30 µM in each case. Further, the inhibition at 1 µM against HDAC1 came out at 96.1%; on HDAC3 (setting [4]) it was 93.5%; against HDAC6, 91.5%.
As to `O=C(CCCCCCn1ccc2cc(Br)ccc21)NO` [Compound 5k, 7-(5-Bromo-1H-indol-1-yl)-N-hydroxyheptanamide], the IC50 in assay [1], in assay [2] and in assay [3] was above 30 µM throughout. The inhibition at 1 µM at HDAC1 amounted to 96.2%; at HDAC3 (setting [4]), 92.2%; against HDAC6, 90.3%.
On to `CC(=O)c1cccn1CCCCCCCC(=O)NO` [Compound 3e, 8-(2-Acetyl-1H-pyrrol-1-yl)-N-hydroxyoctanamide], for which the IC50 came out at 0.0824 ± 0.0312 µM at HDAC1, 0.085 ± 0.00121 µM on HDAC3 and 0.0155 ± 0.0029 µM on HDAC6.
Consider `CCC(=O)c1cccn1CCCCCCC(=O)NO` [Compound 5b, N-hydroxy-7-(2-propionyl-1H-pyrrol-1-yl)heptanamide], for which the IC50 in assay [1] amounted to 23 ± 7.03 µM; in assay [2], 12.9 ± 0.75 µM; on HDAC1, 0.0542 ± 0.00874 µM; in assay [3], 19.9 ± 7.71 µM; at HDAC3, 0.0582 ± 0.00464 µM; on HDAC6, 0.00767 ± 0.00106 µM.
Consider `CC(=O)c1cccn1Cc1cn(CCc2ccc(C(=O)Nc3ccc(F)cc3N)cc2)nn1` [Compound 19b, 4-(2-(4-((2-Acetyl-1H-pyrrol-1-yl)methyl)-1H-1,2,3-triazol-1-yl)ethyl)-N-(2-amino-4-fluorophenyl)benzamide], for which the IC50 on HDAC1, against HDAC3 and at HDAC6 was above 10 µM in each case.
Regarding `O=C(CCCCCCn1ccc2ccc(F)cc21)NO` [Compound 5h, 7-(6-Fluoro-1H-indol-1-yl)-N-hydroxyheptanamide], the IC50 in assay [1], in assay [2] and in assay [3] was above 30 µM throughout. The figures for the inhibition at 1 µM against HDAC1, at HDAC3 (setting [4]) and against HDAC6 were 96.5%, 93.2% and 92.4%, respectively.
As for `CC(=O)c1cccn1CCc1ccc(C(=O)NO)cc1` [Compound 11, 4-(2-(2-Acetyl-1H-pyrrol-1-yl)ethyl)-N-hydroxybenzamide], the results for the IC50 in assay [1], in assay [2] and in assay [3] were 17.1 ± 8.69 µM, 28 ± 0.56 µM and 11.7 ± 1.75 µM, respectively. Besides, the figures for the inhibition at 10 µM on HDAC1 (at 10 μM), on HDAC3 (setting [4]) and against HDAC6 (at 10 μM) were 77.6%, 79.9% and 89.5%, respectively.

As a reminder, the inhibition is the drop in the measured response relative to a control, in per cent.
